Source: ChEMBL document CHEMBL3588800, “Novel Bioactive Hybrid Compound Dual Targeting Estrogen Receptor and Histone Deacetylase for the Treatment of Breast Cancer” (J Med Chem, 2015)

Assays:
Histone deacetylase 1 = Histone deacetylase 1 (Homo sapiens, UniProt Q13547); assay: Inhibition of human recombinant HDAC1 after 15 mins by fluorogenic assay; conditions: read-out: IC50
Estrogen receptor [1] = target: T1, Estrogen receptor (Homo sapiens, UniProt P03372); assay: Binding affinity to human ER-alpha ligand binding domain after 2 hrs by competitive fluorometric binding assay
T1 sequence (P03372 whole entry): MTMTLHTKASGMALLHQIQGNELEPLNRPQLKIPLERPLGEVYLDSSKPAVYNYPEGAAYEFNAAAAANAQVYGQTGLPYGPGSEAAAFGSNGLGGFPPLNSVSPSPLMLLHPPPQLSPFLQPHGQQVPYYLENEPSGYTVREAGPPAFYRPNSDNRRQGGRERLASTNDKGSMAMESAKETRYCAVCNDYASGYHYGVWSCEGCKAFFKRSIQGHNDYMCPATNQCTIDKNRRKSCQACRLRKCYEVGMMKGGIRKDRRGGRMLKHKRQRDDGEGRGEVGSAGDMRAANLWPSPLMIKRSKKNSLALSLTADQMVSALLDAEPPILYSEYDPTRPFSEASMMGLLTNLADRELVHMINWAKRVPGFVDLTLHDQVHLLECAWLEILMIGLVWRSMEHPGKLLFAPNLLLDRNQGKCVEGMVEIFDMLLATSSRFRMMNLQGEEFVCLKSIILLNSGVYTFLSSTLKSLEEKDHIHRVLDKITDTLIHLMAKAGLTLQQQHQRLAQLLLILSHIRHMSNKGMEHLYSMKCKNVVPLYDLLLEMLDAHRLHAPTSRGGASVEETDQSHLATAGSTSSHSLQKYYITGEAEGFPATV

Estrogen receptor beta [2] = target: T2, Estrogen receptor beta (Homo sapiens, UniProt Q92731); assay: Binding affinity to human ER-beta ligand binding domain after 2 hrs by competitive fluorometric binding assay
Estrogen receptor [3] = target: T1, Estrogen receptor; assay: Agonist activity at ER-alpha (unknown origin) transfected in HEK293T cells assessed as stimulation of transcriptional activity after 24 hrs by luciferase reporter gene assay; type: cell-based, HEK-293T
[4] = target: T3, Estrogen receptor (Homo sapiens) (UniProt P03372); assay: Agonist activity at ER-alpha (unknown origin) transfected in HEK293T cells assessed as stimulation of transcriptional activity after 24 hrs by luciferase reporter gene assay relative to 17-beta estradiol; type: cell-based; conditions: HEK-293T
T3 sequence (whole entry): T1 sequence (P03372 whole entry)

Estrogen receptor beta [5] = target: T2, Estrogen receptor beta; assay: Agonist activity at ER-beta (unknown origin) transfected in HEK293T cells assessed as stimulation of transcriptional activity after 24 hrs by luciferase reporter gene assay; type: cell-based, HEK-293T
Estrogen receptor beta [6] = target: T2, Estrogen receptor beta; assay: Agonist activity at ER-beta (unknown origin) transfected in HEK293T cells assessed as stimulation of transcriptional activity after 24 hrs by luciferase reporter gene assay relative to 17-beta estradiol; type: cell-based; conditions: HEK-293T
[7] = target: T3, Estrogen receptor (Homo sapiens); assay: Antagonist activity at ER-alpha (unknown origin) transfected in HEK293T cells assessed as inhibition of transcriptional activity after 24 hrs by luciferase reporter gene assay relative to 17-beta estradiol; type: cell-based; conditions: HEK-293T
Estrogen receptor beta [8] = target: T2, Estrogen receptor beta; assay: Antagonist activity at ER-beta (unknown origin) transfected in HEK293T cells assessed as inhibition of transcriptional activity after 24 hrs by luciferase reporter gene assay relative to 17-beta estradiol; type: cell-based; conditions: HEK-293T
MCF7 = assay: cells; type: functional, cell-based; conditions: Homo sapiens, MCF7, 72 h
DU-145 = assay: cells; type: functional, cell-based; conditions: Homo sapiens, DU-145, 72 h
Vero = assay: cells; type: ADME, cell-based; conditions: Chlorocebus sabaeus, 72 h
[9] = Therapeutic index, ratio of IC50 for african green monkey Vero cells to IC50 for human MCF7 cells
[10] = target: T4, Protein deacetylase HDAC6 (Homo sapiens, UniProt Q9UBN7); assay: Inhibition of human recombinant HDAC6 after 15 mins by fluorogenic assay; conditions: read-out: IC50
T4 sequence (Q9UBN7 whole entry): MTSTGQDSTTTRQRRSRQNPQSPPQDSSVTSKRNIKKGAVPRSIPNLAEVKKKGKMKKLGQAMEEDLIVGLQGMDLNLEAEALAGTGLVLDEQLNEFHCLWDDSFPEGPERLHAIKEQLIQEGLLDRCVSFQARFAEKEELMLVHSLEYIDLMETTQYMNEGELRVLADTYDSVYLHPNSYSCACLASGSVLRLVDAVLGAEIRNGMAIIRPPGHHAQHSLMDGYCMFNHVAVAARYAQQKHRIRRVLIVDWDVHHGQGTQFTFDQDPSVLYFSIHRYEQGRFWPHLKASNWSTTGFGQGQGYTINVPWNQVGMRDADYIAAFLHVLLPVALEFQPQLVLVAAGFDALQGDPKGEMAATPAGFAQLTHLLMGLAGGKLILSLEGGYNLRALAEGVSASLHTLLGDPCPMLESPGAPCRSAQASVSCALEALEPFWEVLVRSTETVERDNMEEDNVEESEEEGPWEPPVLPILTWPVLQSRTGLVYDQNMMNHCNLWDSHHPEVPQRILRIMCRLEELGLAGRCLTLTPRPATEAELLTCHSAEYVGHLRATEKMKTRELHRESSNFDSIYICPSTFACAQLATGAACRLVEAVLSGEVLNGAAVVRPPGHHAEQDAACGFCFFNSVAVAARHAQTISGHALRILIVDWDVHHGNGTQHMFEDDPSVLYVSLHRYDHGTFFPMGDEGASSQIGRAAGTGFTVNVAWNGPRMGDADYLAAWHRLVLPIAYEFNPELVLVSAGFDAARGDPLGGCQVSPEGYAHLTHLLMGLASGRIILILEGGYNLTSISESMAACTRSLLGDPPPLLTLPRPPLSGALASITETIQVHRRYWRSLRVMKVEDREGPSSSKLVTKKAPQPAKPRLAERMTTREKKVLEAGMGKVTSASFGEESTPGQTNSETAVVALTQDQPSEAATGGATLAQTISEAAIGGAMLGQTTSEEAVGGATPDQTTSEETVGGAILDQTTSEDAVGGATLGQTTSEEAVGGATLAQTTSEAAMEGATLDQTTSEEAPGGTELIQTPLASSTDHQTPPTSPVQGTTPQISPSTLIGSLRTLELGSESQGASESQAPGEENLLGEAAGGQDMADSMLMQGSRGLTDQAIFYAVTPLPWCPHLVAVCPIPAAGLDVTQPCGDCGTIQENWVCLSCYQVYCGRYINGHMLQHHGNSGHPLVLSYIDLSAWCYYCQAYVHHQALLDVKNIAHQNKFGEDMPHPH

Estrogen receptor [11] = target: T1, Estrogen receptor; assay: Antagonist activity at ER-alpha (unknown origin) transfected in HEK293T cells assessed as inhibition of transcriptional activity after 24 hrs by luciferase reporter gene assay; type: cell-based, HEK-293T
Estrogen receptor beta [12] = target: T2, Estrogen receptor beta; assay: Antagonist activity at ER-beta (unknown origin) transfected in HEK293T cells assessed as inhibition of transcriptional activity after 24 hrs by luciferase reporter gene assay; type: cell-based, HEK-293T

T2 sequence (Q92731 whole entry, the tested form may be a part): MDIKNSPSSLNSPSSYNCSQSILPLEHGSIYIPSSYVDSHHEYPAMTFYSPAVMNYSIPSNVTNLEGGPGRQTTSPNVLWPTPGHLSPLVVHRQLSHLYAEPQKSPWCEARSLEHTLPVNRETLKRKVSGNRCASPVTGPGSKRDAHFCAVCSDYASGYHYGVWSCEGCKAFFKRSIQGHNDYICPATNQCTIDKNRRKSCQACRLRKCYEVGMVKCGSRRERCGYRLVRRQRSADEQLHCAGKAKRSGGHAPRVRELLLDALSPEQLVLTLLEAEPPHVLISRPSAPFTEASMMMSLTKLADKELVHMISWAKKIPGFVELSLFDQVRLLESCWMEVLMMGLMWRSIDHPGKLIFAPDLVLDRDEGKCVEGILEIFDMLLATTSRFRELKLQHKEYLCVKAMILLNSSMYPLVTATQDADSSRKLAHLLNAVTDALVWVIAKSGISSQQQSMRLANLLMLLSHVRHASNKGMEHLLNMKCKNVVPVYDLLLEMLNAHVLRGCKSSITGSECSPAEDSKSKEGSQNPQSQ
Sequence of Histone deacetylase 1 (Q13547 whole entry, the tested form may be a part): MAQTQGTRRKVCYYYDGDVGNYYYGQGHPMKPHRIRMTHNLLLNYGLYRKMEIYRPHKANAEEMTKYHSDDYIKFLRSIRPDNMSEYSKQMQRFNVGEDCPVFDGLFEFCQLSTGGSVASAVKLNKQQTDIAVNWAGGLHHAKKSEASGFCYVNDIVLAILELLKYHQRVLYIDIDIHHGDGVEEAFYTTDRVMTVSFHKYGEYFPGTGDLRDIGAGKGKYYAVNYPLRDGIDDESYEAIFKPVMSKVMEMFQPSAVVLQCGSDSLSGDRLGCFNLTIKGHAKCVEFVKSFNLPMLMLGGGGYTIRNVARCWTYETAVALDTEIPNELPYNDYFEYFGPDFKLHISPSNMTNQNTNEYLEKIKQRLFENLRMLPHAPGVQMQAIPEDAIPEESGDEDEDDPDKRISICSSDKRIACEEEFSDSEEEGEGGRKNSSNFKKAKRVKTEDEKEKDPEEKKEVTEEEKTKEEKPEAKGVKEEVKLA

IC50 (Histone deacetylase 1) [nM] | Ki (Estrogen receptor [1]) [nM] | Ki (Estrogen receptor beta [2]) [nM] | EC50 (Estrogen receptor [3]) [nM] | Efficacy [4] [%] | EC50 (Estrogen receptor beta [5]) [nM] | Efficacy (Estrogen receptor beta [6]) [%] | Efficacy [7] [%] | Efficacy (Estrogen receptor beta [8]) [%] | IC50 (MCF7) [nM] | IC50 (DU-145) [nM] | IC50 [10] [nM] | IC50 (Estrogen receptor [11]) [nM] | IC50 (Estrogen receptor beta [12]) [nM] | Compound | IC50 (Vero) [nM] | selectivity ratio [9]
241 | 126 | 200 | 790 | 149 | 580 | 44 | 93 | 188 | 3300 | > 100000 | 1460 | – | – | O=C(O)CCCCCCC(=O)Nc1ccc(C2=C(c3ccc(O)cc3)C3CC(S(=O)(=O)Oc4ccc(Cl)cc4)C2O3)cc1 (racemic) | > 100000 | > 30.3
534 | 59.9 | 756 | – | -35 | – | 4 | 10 | 76 | 8100 | 20400 | 1580 | 10800 | 330 | COC(=O)CCCCCCC(=O)Nc1ccc(OS(=O)(=O)C2CC3OC2C(c2ccc(O)cc2)=C3c2ccc(O)cc2)cc1 (stereo not drawn) | > 100000 | > 12.3
